Data from paper PMC7218270 (EBioMedicine, 2020).
Converted amounts (≈) assume the structure as drawn. “And” between values parts separate entries of the source, which are not always exact repeats. Identical values can stand only once.

Legend:
S. pneumoniae = assay: MIC, planktonic cells; format: cell-based; conditions: Streptococcus pneumoniae, 18 h
P. aeruginosa ATCC27853 = assay: MIC, planktonic cells; format: cell-based; conditions: Pseudomonas aeruginosa, ATCC27853, 18 h
E. coli A2 = assay: MIC, planktonic cells; format: cell-based; conditions: Escherichia coli, A2, 18 h
Mlicrococcus scarlatinae = assay: MIC, planktonic cells; format: cell-based; conditions: 18 h
P. aeruginosa 103 = assay: MIC, planktonic cells; format: cell-based; conditions: Pseudomonas aeruginosa, 103, 18 h
P. aeruginosa 110 = assay: MIC, planktonic cells; format: cell-based; conditions: Pseudomonas aeruginosa, 110, 18 h
P. aeruginosa CMCC10104 = assay: MIC, planktonic cells; format: cell-based; conditions: Pseudomonas aeruginosa, CMCC10104, 18 h
E. coli ATCC25922 = assay: MIC, planktonic cells; format: cell-based; conditions: Escherichia coli, ATCC25922, 18 h
Enterococcus faecalis = assay: MIC, planktonic cells; format: cell-based; conditions: 18 h
[1] = test system: Drug-susceptible P. aeruginosa; assay: Resistance study, serial passages; format: cell-based; conditions: passages at 1/4 × MIC
C. albicans ATCC10231 = assay: microbe, parasite or virus in culture; format: cell-based; conditions: Candida albicans, ATCC10231, 72 h
C. neoformans 6120 = assay: microbe, parasite or virus in culture; format: cell-based; conditions: Cryptococcus neoformans, 6120, 72 h
C. neoformans ATCC28957 = assay: microbe, parasite or virus in culture; format: cell-based; conditions: Cryptococcus neoformans, ATCC28957, 72 h
[2] = test system: fluconazole-resistant C. albicans; parameters: species or system G. mellonella; conditions: in vivo
C. albicans 006 = assay: microbe, parasite or virus in culture; format: cell-based; conditions: Candida albicans, 006, 72 h
C. albicans 7248 = assay: microbe, parasite or virus in culture; format: cell-based; conditions: Candida albicans, 7248, 72 h
[3] = test system: Drug-susceptible C. albicans; format: cell-based
C. neoformans 4906 = assay: microbe, parasite or virus in culture; format: cell-based; conditions: Cryptococcus neoformans, 4906, 72 h
C. neoformans 001 = assay: microbe, parasite or virus in culture; format: cell-based; conditions: Cryptococcus neoformans, 001, 72 h

CC1(C)S[C@@H]2[C@H](NC(=O)COc3ccccc3)C(=O)N2[C@H]1C(=O)O [Penicillin V potassium]
MIC (S. pneumoniae): > 128 µg/mL | MIC (P. aeruginosa ATCC27853): 2 µg/mL | MIC (E. coli A2): > 128 µg/mL | MIC (Mlicrococcus scarlatinae): > 128 µg/mL | MIC (P. aeruginosa 103): > 128 µg/mL | MIC (P. aeruginosa 110): > 128 µg/mL | MIC (P. aeruginosa CMCC10104): 4 µg/mL | MIC (E. coli ATCC25922): 2 µg/mL | MIC (Enterococcus faecalis): > 128 µg/mL

Polymyxin B
MIC increase ([1]; at the 8th generation): 16 fold

OC(Cn1cncn1)(Cn1cncn1)c1ccc(F)cc1F [Fluconazole]
MIC (C. albicans ATCC10231): 4 µg/mL (≈ 13.1 µM) | MIC (C. neoformans 6120): > 128 µg/mL | MIC (C. neoformans ATCC28957): 2 µg/mL (≈ 6.53 µM) | survival rate of G. mellonella [2]: 40% | MIC (C. albicans 006): 4 µg/mL (≈ 13.1 µM) | MIC (C. albicans 7248): > 128 µg/mL | MIC increase [3]: 4 fold and 8 fold | MIC (C. neoformans 4906): 128 µg/mL (≈ 418 µM) | MIC (C. neoformans 001): 2 µg/mL (≈ 6.53 µM)

C[C@H]1COc2c(N3CCN(C)CC3)c(F)cc3c(=O)c(C(=O)O)cn1c23 [levofloxacin]
MIC increase ([1]; at the 8th generation): 4 fold | MIC increase ([1]; at the 20th generation): 8 fold

CC(C)(O/N=C(\C(=O)N[C@@H]1C(=O)N2C(C(=O)[O-])=C(C[n+]3ccccc3)CS[C@H]12)c1csc(N)n1)C(=O)O [Ceftazidime]
MIC (S. pneumoniae): > 128 µg/mL | MIC (P. aeruginosa ATCC27853): 1 µg/mL (≈ 1.83 µM) | MIC increase ([1]; at the 8th generation): 4 fold | MIC increase ([1]; at the 20th generation): 16 fold | MIC (E. coli A2): 64 µg/mL (≈ 117 µM) | MIC (Mlicrococcus scarlatinae): > 128 µg/mL | MIC (P. aeruginosa 103): > 128 µg/mL | MIC (P. aeruginosa 110): > 128 µg/mL | MIC (P. aeruginosa CMCC10104): 0.5 µg/mL (≈ 0.915 µM) | MIC (E. coli ATCC25922): 1 µg/mL (≈ 1.83 µM) | MIC (Enterococcus faecalis): > 128 µg/mL

CC(=O)N1CCN(c2ccc(OCC3COC(Cn4ccnc4)(c4ccc(Cl)cc4Cl)O3)cc2)CC1 (stereo not drawn) [ketoconazole]
MIC increase [3]: 4 fold
